Structures can show the parent of a compound that is named as a salt.
Legend:
Format in all cases: cell-based
Settings in all cases: lowest concentration inhibiting 95% of bacterial growth; in the presence of β lactamase inhibitor Relebactam 4 μg/mL; 35±2° C. for 22 hours; tested range 100 μM to 0.098 μM
[1] = tested on: Pseudomonas aeruginosa expressing AmpC (CL5701); assay: Antibiotic activity: growth inhibitory concentration (OD600), Pseudomonas aeruginosa CL5701
In short: (§1)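 Growth inhibition by OD600 after 22 hours incubation at 35±2° C, reported as lowest concentration inhibiting 95% of growth (MITC95). Final compound range 100 μM to 0.098 μM, always combined with β-lactamase inhibitor relebactam (4 μg/mL final); inoculum ~2×10^5 CFU/mL in cation-adjusted Mueller-Hinton II broth.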

[2] = tested on: Escherichia coli expressing NDM-1 (CLB30016); assay: Antibiotic activity: growth inhibitory concentration (OD600), Escherichia coli CLB30016
Procedure: (§2) Antibiotic Activity: Determination of Growth Inhibitory Concentration
(§3) The concentrations of compounds required to inhibit the growth of various strains of bacteria were determined in an assay that assessed bacterial growth by measuring optical density at 600 nm (OD600). The bacterial strains tested included the clinical strains Escherichia coli expressing NDM-1 (CLB30016), Klebsiella pneumoniae expressing KPC-1 (CL6569), Acinetobacter baumannii expressing TEM-1, AmpC, and Oxa-24/40 (CL6188) and Pseudomonas aeruginosa expressing AmpC (CL5701). All compounds were tested in the presence of a β lactamase inhibitor (BLi, Relebactam) in 384-well microplates. The clinical strains were stored as frozen single use stocks, thawed and diluted into 1.1× cation-adjusted Mueller-Hinton II broth to achieve approximately 2×10^5 CFU/mL. Test compounds were dissolved in DMSO and diluted 1:50 in the assay, resulting in a final concentration range of 100 μM to 0.098 μM. […] At the end of the incubation, absorbance at 600 nm was determined using a spectrophotometer. Inhibition was quantitated by identifying the lowest concentration of test compound that was required to inhibit 95% of the growth of the bacteria. The results for Examples 1-126 are reported in Table I, expressed as the concentration of compound that inhibited 95% of bacterial growth (Minimum Inhibitory Threshold Concentration; MITC95).

[3] = tested on: Acinetobacter baumannii expressing TEM-1, AmpC, and Oxa-24/40 (CL6188); assay: Antibiotic activity: growth inhibitory concentration (OD600), Acinetobacter baumannii CL6188
Procedure: as §2, §3

[4] = tested on: Klebsiella pneumoniae expressing KPC-1 (CL6569); assay: Antibiotic activity: growth inhibitory concentration (OD600), Klebsiella pneumoniae CL6569
In short: as §1

Row | Compound | PA_CL5701 MITC95 [1] | EC_CLB30016 MITC95 [2] | AB_CL6188 MITC95 [3] | KP_CL6569 MITC95 [4]
1 | C[n+]1cc(-c2ccc(OC[C@H](O/N=C(\C(=O)N[C@@H]3C(=O)N(OS(=O)(=O)[O-])C3(C)C)c3csc(N)n3)C(=O)O)cc2)c(N)n1CCCN [Example 50, (S)-3-((Z)-2-(((S)-2-(4-(5-Amino-1-(3-aminopropyl)-2-methyl-1H-pyrazol-2-ium-4-yl)phenoxy)-1-carboxyethoxy)imino)-2-(2-aminothiazol-4-yl)acetamido)-2,2-dimethyl-4-oxoazetidin-1-yl sulfate] | 6.25 µM | 6.25 µM | 3.125 µM | 0.3906 µM
2 | CCOC(=O)[C@H](COc1ccc(-c2cn(CCCN)c(=N)n2C)cc1)O/N=C(\C(=O)N[C@@H]1C(=O)N(OS(=O)(=O)O)C1(C)C)c1csc(N)n1 [Example 116, Ethyl (S)-3-(4-(1-(3-aminopropyl)-2-imino-3-methyl-2,3-dihydro-1H-imidazol-4-yl)phenoxy)-2-((((Z)-1-(2-aminothiazol-4-yl)-2-(((S)-2,2-dimethyl-4-oxo-1-(sulfooxy)azetidin-3-yl)amino)-2-oxoethylidene)amino)oxy)propanoate] | 50 µM | – | – | 6.25 µM
3 | COC(=O)[C@H](COc1ccc(-c2cn(CCCN)[n+](C)c2)cc1)O/N=C(\C(=O)N[C@@H]1C(=O)N(OS(=O)(=O)[O-])C1(C)C)c1csc(N)n1 [Example 117, (S)-3-((Z)-2-((((S)-3-(4-(1-(3-aminopropyl)-2-methyl-1H-pyrazol-2-ium-4-yl)phenoxy)-1-methoxy-1-oxopropan-2-yl)oxy)imino)-2-(2-aminothiazol-4-yl)acetamido)-2,2-dimethyl-4-oxoazetidin-1-yl sulfate] | 25 µM | – | – | 3.125 µM
4 | CC1(C)[C@H](NC(=O)/C(=N\O[C@@H](COc2ccc(-n3ccn(CCCN)c3=N)nc2)C(=O)O)c2csc(N)n2)C(=O)N1OS(=O)(=O)O [Example 118, (S)-3-((6-(3-(3-aminopropyl)-2-imino-2,3-dihydro-1H-imidazol-1-yl)pyridin-3-yl)oxy)-2-((((Z)-1-(2-aminothiazol-4-yl)-2-(((S)-2,2-dimethyl-4-oxo-1-(sulfooxy)azetidin-3-yl)amino)-2-oxoethylidene)amino)oxy)propanoic acid] | 6.25 µM | – | – | 0.3906 µM
5 | CC1(C)[C@H](NC(=O)/C(=N\O[C@@H](COc2ccc(-c3cn(CCCN)[n+](CC4(F)CNC4)c3)cc2)C(=O)O)c2csc(N)n2)C(=O)N1OS(=O)(=O)[O-] [Example 119, (S)-3-((Z)-2-(((S)-2-(4-(1-(3-aminopropyl)-2-((3-fluoroazetidin-3-yl)methyl)-1H-pyrazol-2-ium-4-yl)phenoxy)-1-carboxyethoxy)imino)-2-(2-aminothiazol-4-yl)acetamido)-2,2-dimethyl-4-oxoazetidin-1-yl sulfate] | 6.25 µM | – | – | 0.3906 µM
6 | C[n+]1nc(NCCCN)ccc1-c1ccc(OC[C@H](O/N=C(\C(=O)N[C@@H]2C(=O)N(OS(=O)(=O)[O-])C2(C)C)c2csc(N)n2)C(=O)O)cc1 [Example 122, (S)-3-((Z)-2-(((S)-2-(4-(3-((3-aminopropyl)amino)-1-methylpyridazin-1-ium-6-yl)phenoxy)-1-carboxyethoxy)imino)-2-(2-aminothiazol-4-yl)acetamido)-2,2-dimethyl-4-oxoazetidin-1-yl sulfate] | 3.125 µM | – | – | 0.1953 µM
7 | C[n+]1nc(-c2ccc(OC[C@H](O/N=C(\C(=O)N[C@@H]3C(=O)N(OS(=O)(=O)[O-])C3(C)C)c3csc(N)n3)C(=O)O)cc2)ccc1NCCCN [Example 123, (S)-3-((Z)-2-(((S)-2-(4-(6-((3-aminopropyl)amino)-1-methylpyridazin-1-ium-3-yl)phenoxy)-1-carboxyethoxy)imino)-2-(2-aminothiazol-4-yl)acetamido)-2,2-dimethyl-4-oxoazetidin-1-yl sulfate] | 12.5 µM | – | – | 0.3906 µM
8 | CC1(C)[C@H](NC(=O)/C(=N\O[C@@H](COc2ccc(-n3cc(CCCN)[n+](CC4(F)CNC4)c3)nc2)C(=O)O)c2csc(N)n2)C(=O)N1OS(=O)(=O)[O-] [Example 124, (S)-3-((Z)-2-(((S)-2-((6-(4-(3-aminopropyl)-3-((3-fluoroazetidin-3-yl)methyl)-1H-imidazol-3-ium-1-yl)pyridin-3-yl)oxy)-1-carboxyethoxy)imino)-2-(2-aminothiazol-4-yl)acetamido)-2,2-dimethyl-4-oxoazetidin-1-yl sulfate] | 12.5 µM | – | – | 0.7813 µM
9 | CC1(C)[C@H](NC(=O)/C(=N\O[C@@H](COc2ccc(-c3cc(CNCCN)n(CCCN)n3)cc2)C(=O)O)c2csc(N)n2)C(=O)N1OS(=O)(=O)O [Example 125, (S)-3-(4-(5-(((2-Aminoethyl)amino)methyl)-1-(3-aminopropyl)-1H-pyrazol-3-yl)phenoxy)-2-((((Z)-1-(2-aminothiazol-4-yl)-2-(((S)-2,2-dimethyl-4-oxo-1-(sulfooxy)azetidin-3-yl)amino)-2-oxoethylidene)amino)oxy)propanoic acid] | 3.125 µM | – | – | 0.39 µM
10 | CC1(C)[C@H](NC(=O)/C(=N\O[C@@H](COc2ccc(-c3cc(CN)n(CCCN)n3)cc2)C(=O)O)c2csc(N)n2)C(=O)N1OS(=O)(=O)O [Example 126, (S)-3-(4-(5-(Aminomethyl)-1-(3-aminopropyl)-1H-pyrazol-3-yl)phenoxy)-2-((((Z)-1-(2-aminothiazol-4-yl)-2-(((S)-2,2-dimethyl-4-oxo-1-(sulfooxy)azetidin-3-yl)amino)-2-oxoethylidene)amino)oxy)propanoic acid] | 3.125 µM | – | – | 0.39 µM
11 | (S)-3-((Z)-2-(((S)-2-(4-(2-(3-amino-2-fluoro-2λ^3-propyl)-1-(azetidin-3-ylmethyl)-1H-pyrazol-2-ium-4-yl)phenoxy)-1-carboxyethoxy)imino)-2-(2-aminothiazol-4-yl)acetamido)-2,2-dimethyl-4-oxoazetidin-1-yl sulfate [Example 121] | 1.563 µM | 6.25 µM | 1.563 µM | 0.1953 µM

Source: US11230543B2, “Biaryl monobactam compounds and methods of use thereof for the treatment of bacterial infections” (priority 2015, dated 2022)
